Source: patent US7491545B2, “Excitation ratiometric fluoroscent biosensor for zinc ion at picomolar levels” (priority 2002, dated 2009)
Entries after “also recorded” stand apart in the source; their conditions may differ.

Key:
cell membranes = assay: Cell permeation of donor fluorophore
holo carbonic anhydrase = holo carbonic anhydrase (Homo sapiens, UniProt P00918); details: read-out: Kd of binding to holoprotein; cited from earlier work

CN(C)c1ccc(-c2cnc(-c3ccc(S(N)(=O)=O)cc3)o2)cc1 [Dapoxyl sulfonamide]
cell permeability (cell membranes): readily penetrates cell membranes; also recorded: rapidly cell-permeant | Kd (holo carbonic anhydrase): 200 nM
